The text below walks through data of ChEMBL document CHEMBL4813917, “2-((1-Phenyl-1H-1,2,3-triazol-4-yl)methyl)-2-azabicyclo[3.2.1]octan-3-one derivatives: Simplification and modification of aconitine scaffold for the discovery of novel anticancer agents” (Eur J Med Chem, 2021).

Active and inactive are the calls of the source. The calls are words filed in the database; no cut-off is given here.

The test system of data set [1] is LoVo. The data set can be described thus: Cell cycle arrest in human LoVo cells assessed as decrease of cells in G2/M phase at 20 to 80 nM measured after 24 hrs by PI staining based flow cytometry method. Format: functional. Conditions: dose 20-80 nM. (In general: Flow cytometry measures light scatter and fluorescence of single cells or particles in a stream.)
Data set [2] is described as follows: Cytotoxicity against human GES1 cells assessed as reduction in cell viability measured after 24 hrs by MTT assay. Format: cell-based.
Data set [3] concerns LoVo. The data set can be described thus: Cell cycle arrest in human LoVo cells assessed as accumulation of cells in G0/G1 phase at 20 to 80 nM measured after 24 hrs by PI staining based flow cytometry method. Conditions: dose 20-80 nM. Format: functional.
In data set [4] the test system is SW-620. The data set can be described thus: Cell cycle arrest in human SW-620 cells assessed as decrease of cells in G2/M phase at 20 to 80 nM measured after 24 hrs by PI staining based flow cytometry method. Format: functional. Conditions: dose 20-80 nM.
Data set [5] is described as follows: Cytotoxicity against human NCM460 cells assessed as reduction in cell viability measured after 24 hrs by MTT assay. In kind it is cell-based.
The subject of data set [6] is LoVo. The data set is described as follows: Induction of apoptosis in human LoVo cells assessed as early apoptotic cells at 20 nM measured after 24 hrs by Annexin V/PI staining based flow cytometry method (reference value: 1.6%). Format: functional.
Data set [7] concerns LoVo. The data set can be described thus: Induction of apoptosis in human LoVo cells assessed as viable cells at 40 nM measured after 24 hrs by Annexin V/PI staining based flow cytometry method (reference value: 93.5%). Format: functional. Conditions: read-out: Activity.
For data set [8], the system named is LoVo. The data set is described as follows: Induction of apoptosis in human LoVo cells assessed as early apoptotic cells at 40 nM measured after 24 hrs by Annexin V/PI staining based flow cytometry method (reference value: 1.6%). In kind it is functional.
For data set [9], the system named is LoVo. The data set can be described thus: Induction of apoptosis in human LoVo cells assessed as necrotic cells at 80 nM measured after 24 hrs by Annexin V/PI staining based flow cytometry method (reference value: 1.3%). In kind it is functional.
Data set [10] relates to SW-620. The data set is described as follows: Induction of apoptosis in human SW-620 cells assessed as viable cells at 40 nM measured after 24 hrs by Annexin V/PI staining based flow cytometry method (reference value: 94%). Format: functional. Conditions: read-out: Activity.
Data set [11] concerns SW-620. The data set is described as follows: Induction of apoptosis in human SW-620 cells assessed as late apoptotic cells at 40 nM measured after 24 hrs by Annexin V/PI staining based flow cytometry method (reference value: 1.3%). Format: functional.
Data set [12] has as its system SW-620. The data set is described as follows: Induction of apoptosis in human SW-620 cells assessed as necrotic cells at 40 nM measured after 24 hrs by Annexin V/PI staining based flow cytometry method (reference value: 3%). In kind it is functional.
Data set [13] concerns SW-620. The data set can be described thus: Induction of apoptosis in human SW-620 cells assessed as viable cells at 80 nM measured after 24 hrs by Annexin V/PI staining based flow cytometry method (reference value: 94%). In kind it is functional. Conditions: read-out: Activity.
In data set [14] the test system is SW-620. The data set can be described thus: Antitumour activity against human SW-620 cells xenografted in Balb/c mouse assessed as inhibition of tumour growth at 5 mg/kg, ip measured after 21 days. In kind it is functional. Conditions: SW-620, ip, 504 h, time 21 day, read-out: TGI.
For data set [15], the system named is LoVo. The data set can be described thus: Induction of apoptosis in human LoVo cells assessed as increase in Bax levels at 20 to 80 nM measured after 24 hrs by Western blot assay. Conditions: dose 20-80 nM. Format: functional, cell-based.

Regarding `CC1(C)[C@H]2CC[C@]1(C)N(Cc1cn(-c3cccc(Br)c3)nn1)C(=O)C2`, the outcome in data set [1], in [3], in data set [4] and in data set [15] was Active. Also, the CC50 (usually the concentration that lowers cell viability or growth by half) at 24 h in data set [2] turned out to be 9.93 µM; in [5] it was 14.6 µM. Moreover, the Activity in data set [6] turned out to be 3%; in data set [8], 3.2%; in data set [9], 6%; in data set [11] it was 15.1%; in data set [12], 1.3%. The viability at 0.04 µM amounted to 89.8% in data set [7] and 75.5% in data set [10]. The viability at 0.08 µM in [13] came to 46.4%. For the same molecule, the inhibition in vivo at 5 mg/kg in data set [14] came to 81.6%.
